Source: PMC10253812, “Novel 2-alkythio-4-chloro-N-[imino(heteroaryl)methyl]benzenesulfonamide Derivatives: Synthesis, Molecular Structure, Anticancer Activity and Metabolic Stability” (International Journal of Molecular Sciences, 2023)
Read-outs that look alike come from different tables or passages of the source.

Key:
[1] = tested on: HaCaT (immortalized human keratinocytes); assay: MTT cell viability assay, non-tumor HaCaT; format: cell-based; conditions: Homo sapiens, HaCaT, 72 h of incubation, non-tumor cell line
Protocol: (§1) Compounds 8–24 were evaluated in vitro for their cytotoxic effect against three human cancer cell lines, i.e., HeLa (cervical cancer), HCT-116 (colon cancer) and MCF-7 (breast cancer), and the non-tumor cell line HaCaT using the MTT assay after 72 h of incubation. The results of tests are presented in Table 1 as IC50, indicating the concentration required for 50% inhibition of cell viability. Compounds 8–10 and 14–18 are not presented in the Table 1 because of their low potency (IC50 > 100 µM).
We also performed an assay on the non-tumor cell line HaCaT (immortalized human keratinocytes) to assess if the effect of 11–13 was selective toward HeLa cells or resulted from a more general toxic activity.
(§2) All chemicals, if not stated otherwise, were obtained from Sigma-Aldrich (St. Louis, MO, USA). The MCF-7, HeLa and HaCaT cell lines were purchased from Cell Lines Services (Eppelheim, Germany), and the HCT-116 cell line was purchased from ATCC (ATCC-No: CCL-247). The cells were cultured in Dulbecco’s modified Eagle’s medium (DMEM) supplemented with 10% fetal bovine serum, 2 mM glutamine, 100 units/mL of penicillin and 100 μg/mL of streptomycin. The cultures were maintained in a humidified atmosphere with 5% CO2 at 37 °C, in an incubator (Heraeus, HeraCell).
(§3) Cytotoxicity assay: Cell viability was determined using the MTT (3-(4,5-dimethylthiazol-2-yl)-2,5diphenyltetrazoliumbromide) assay. The cells were seeded in 96-well plates at a density of 5 × 10^3 cells/well and treated for 24, 48 and 72 h with the examined compounds in the concentration range 1–100 μM. Following treatment, MTT (0.5 mg/mL) was added to the medium, and the cells were further incubated for 2 h at 37 °C. the cells were lysed with DMSO, and the absorbance of the formazan solution was measured at 550 nm with a plate reader (Victor, 1420 multilabel counter). The experiment was performed in triplicate. The values are expressed as the mean ± SD of at least three independent experiments.

[2] = tested on: MCF-7 (breast cancer) cell line; assay: MTT cell viability assay, MCF-7; format: cell-based, human; conditions: Homo sapiens, MCF7; for viability at 100 µM: MCF-7, MTT, 72 h, read-out: Viability of cell line in the presence of 100 μM of the tested compound
Protocol: as §1, §2, §3

[3] = tested on: HeLa (cervical cancer) cell line; assay: MTT cell viability assay, HeLa; format: cell-based, human; conditions: for IC50: Homo sapiens, HeLa
Protocol: as §1
The cytotoxic activity of 11–13 was determined in a time-dependent manner with the MTT assay (Figure 3).
HeLa cells were treated with 11, 12 and 13 in the concentration range of 0–20 µM. […] After 48 h, the IC50 values for compounds 11, 12 and 13 were 6, 7 and 6 µM, respectively.
as §2, §3

[4] = tested on: caspase activity in HeLa cells; assay: Caspase activity determination (FLICA, FAM-VAD-FMK), flow cytometry; format: cell-based, human; conditions: HeLa, 5, 7 and 10 µM, 24 h
Protocol: Apoptosis induction was further determined by examining the effects of 11, 12 and 13 on caspase activation in HeLa cells. Caspase activity induction was determined with the use of the fluorescently labeled caspase inhibitor-FAM-VAD-FMK (a carboxyfluorescein derivative of valylalanylaspartic acid fluoromethyl ketone). The caspase inhibitor binds to active caspases inhibiting their enzymatic activity, thus allowing caspase activity quantification through determining the fluorescent intensity of the bound inhibitor. […] Increased caspase activation was shown by the increased fluorescence of the caspase inhibitor in the cell population, as indicated in Figure 6.
Caspase Activity Determination: Caspase activity was determined with the FLICA Apoptosis Detection Kit (Immunochemistry Technologies) according to the manufacturer’s instructions. The cells were treated with comp. 11, 12 and 13 (5, 7 and 10 µM) for 24 h, after which the cells were collected and suspended in a buffer containing the caspase inhibitor, i.e., a carboxyfluorescein-labeled fluoromethyl ketone peptide. The cells were subsequently incubated for 1 h at 37 °C under 5% CO2 and, next, they were washed with a washing buffer. The fluorescence intensity of fluorescein was determined by flow cytometry (BD FACSCalibur), and caspase activity was determined as the amount of fluorescence emitted from the caspase inhibitors bound to the caspases. The data were analyzed with Flowing software (version 2.5).

[5] = In vitro metabolic stability assay; format: in vitro ADME, human; conditions: for half-life at 10 μM: pH 7.4, human liver microsomes 0.5 mg/mL, 1 mM NADPH, 10 μM compound, 37 °C, n = 3, read-out: in vitro metabolic half-life t1/2
Protocol: Human liver microsomes along with NADPH were used to assess their susceptibility to undergo first-phase oxidation reactions. The progress of biotransformation was followed by liquid chromatography–mass spectrometry. In order to support the in vitro results, we performed in silico calculations using the Human Liver Microsome-based model for CYP-mediated oxidations provided by the Xenosite online tool.
Stock solutions of the studied compounds were prepared at a concentration of 10 mM in DMSO. […] The incubation mixture contained the studied derivative at a 10 μM concentration, 1 mM NADPH (Sigma-Aldrich) and 0.5 mg/mL of human liver microsomes (HLM, Sigma-Aldrich) in potassium phosphate buffer (0.1 M, pH 7.4). The incubation was carried out in a thermostat at 37 °C and started by the addition of the compound of interest. Then, 20 μL samples were taken after 5, 15, 30, 45 and 60 min. The enzymatic reaction was terminated by the addition of an equal volume of ice-cold acetonitrile containing 10 μM sulfamethoxazole as an internal standard. Control incubations were performed without NADPH as a negative control reflecting NADPH-independent processes, such as chemical degradation and precipitation. After collection, the samples were immediately centrifuged (10 min, 10,000 rpm), and the resulting supernatant was directly analyzed or kept at −80 °C until LC-MS analysis. The natural logarithm of a compound over the IS peak area ratio was plotted vs. the incubation time.
The LC-MS analysis was performed on an Agilent 1260 system coupled to SingleQuad 6120 mass spectrometer (Agilent Technologies, Santa Clara, CA, USA). Poroshell EC-C18 (2.1 mm × 150 mm, 2.7 μm, Agilent Technologies, Santa Clara, CA, USA) was used in reversed-phase mode with gradient elution starting with 90% of phase A (0.1% formic acid in water) and 10% of phase B (0.1% dormic acid in acetonitrile). […] The total analysis time was 21 min at 25 °C, the flow rate was 0.5 mL/min, and the injection volume was 20 μL. The mass spectrometer was equipped with an electrospray ion source and operated in positive ionization mode. The mass analyzer was set for each individual compound to detectthe [M+H]^+ protonated molecule. The MSD parameters of the ESI source were as follows: nebulizer pressure 40 psig (N2), drying gas […] (N2), drying gas temperature 300 °C, capillary voltage 3.0 kV, fragmentor voltage 150 V.

[6] = MTT assay, 72 h of incubation, read-out: IC50 HeLa
[7] = MTT, 24 h of treatment, 0–20 µM

IC50 ([2]; MTT assay, 72 h of incubation)	IC50 [3, 6]	IC50 HeLa after 24 h [3, 7]	half-life at 10 μM [5]	IC50 ([3]; MTT, 24 h of treatment, 0–20 µM, read-out: IC50 HeLa after 24 h)	Structure (SMILES)	IC50 [1]	caspase activity induction [4]	viability at 100 µM [2]	relative metabolic stability in vitro ([5]; human liver microsomes with NADPH, order 12 > 13 > 11)
> 100 µM	6 ± 0.1 µM	not reached	9.1 min	–	Cc1cc(S(=O)(=O)NC(=N)n2ccn(C)c2=S)c(SCc2ccc(Cl)cc2)cc1Cl [Compound 11, 4-Chloro-N-[imino(3-methyl-2-thioxo-2,3-dihydro-1H-imidazol-1-yl)methyl]-5-methyl-2-(4-chlorobenzylthio)benzenesulfonamide]	18 ± 0.5 µM	induced caspase activity in HeLa cells in a dose-dependent manner	–	–
–	6 ± 0.1 µM	–	13.9 min	18 µM	Cc1cc(S(=O)(=O)NC(=N)n2ccn(C)c2=S)c(SCc2cccc3ccccc23)cc1Cl [Compound 13, 4-Chloro-N-[imino(3-methyl-2-thioxo-2,3-dihydro-1H-imidazol-1-yl)methyl]-5-methyl-2-(naphthalen-1-ylmethylthio)benzenesulfonamide]	18 ± 0.5 µM	induced caspase activity in HeLa cells in a dose-dependent manner	100%	–
–	7 ± 0.3 µM	not reached	20.3 min	–	Cc1cc(S(=O)(=O)NC(=N)n2ccn(C)c2=S)c(SCc2cc3c(cc2Cl)OCO3)cc1Cl [Compound 12]	20 ± 1 µM	induced caspase activity in HeLa cells in a dose-dependent manner	100%	exhibited the best stability in vitro among the studied set of compounds
